The results in this text go back to patent US4277474A, “Treatment of allergic symptoms with propanone derivatives” (Nippon Zoki Pharmaceutical Co., Ltd., priority 1978, dated 1981).

Structures can show the parent of a compound that is named as a salt. Where two headings read alike, the source gives them in different places.

One test relates to SRS-A. Put plainly: Anti-SRS-A effect on guinea pig's ileum (Magnus method). Here is the method:
The anti-SRS-A effect of the compounds according to the present invention on guinea pig's ileum was measured by Magnus method. […] One minute thereafter, the ileum contraction inhibiting rate (%) was measured with use of 1 ml of 80% ethanol solution of SRS-A (150 mg/ml).

The subject of another test is Peritoneal cavity cells. In words: Inhibitory effect on histamine release from sensitized peritoneal cavity cells. It counts as cell-based, rat (Wistar-strain). The following applies: for inhibition at 50 µM / inhibition at 100 µM: read-out: Inhibitory effect on histamine release; for inhibition at 200 µM: 0.2 mM. Here is the method:
The inhibitory effect on histamine release of the compounds according to the present invention was investigated as follows. […] These cells were suspended in a phosphoric acid buffer solution (containing 0.1% of gelatin) and each 0.5 ml portion of this suspension was taken in a polyethylene tube. 1 ml each of solutions of various concentrations of test compound and 0.5 ml of 200 μg/ml of ovalbumin solution were added therein. They were incubated for 20 minutes at 37° C. to measure the histamine release rate. The amount of histamine was measured by a modified Shore method using fluorescence.

Setting [1] is: Rattus norvegicus, 0.05 mM, average ± S.E. of 3 or 4 experiments.

For the compound `COc1ccc(C(=O)C(C)CN2CCCCC2)cc1.Cl` (centres unmarked) [Example 25, 4'-methoxy-2-methyl-3-piperidinopropiophenone hydrochloride], the “ileum contraction inhibiting rate” value in the test with SRS-A (10^-4 g/ml) is reported as 80.3 ± 7.22%; in the test on SRS-A (10^-5 g/ml) it was 15.0 ± 14.50%; in the test with SRS-A (10^-6 g/ml) it was 6.7 ± 6.67%.

On to `CC1CCN(CC(C)C(=O)c2ccc3ccccc3c2)CC1` (stereo not drawn) [Example 23, 2-methyl-3-(4-methylpiperidino)-β-propionaphthone hydrochloride], for which the inhibition at 50 µM in the test with Peritoneal cavity cells (setting [1]) stood at 21.4 ± 2.4%. Besides, the inhibition at 100 µM in the test with Peritoneal cavity cells (Rattus norvegicus, 0.1 mM) was found to be 65.8%.

As for `Cc1ccc(C(=O)C(CN2CCCCC2)c2ccccc2)cc1` (centres unmarked) [Example 27, 4'-methyl-2-phenyl-3-piperidinopropiophenone hydrochloride], the inhibition at 200 µM in the test with Peritoneal cavity cells (Rattus norvegicus) is 78.5%.

Turning to `CCCc1ccc(C(=O)C(C)CN2CCCCC2)cc1` (centres unmarked) [Example 36, 4'-n-propyl-2-methyl-3-piperidinopropiophenone hydrochloride], in the test with Peritoneal cavity cells (setting [1]), the inhibition at 50 µM came to 23.6 ± 7.7%.

On to `CC(CN1CCC(Cc2ccccc2)CC1)C(=O)c1ccc2ccccc2c1` (stereo not drawn) [Example 29, 2-methyl-3-(4-benzylpiperidino)-β-propionaphthone hydrochloride], for which the inhibition at 50 µM in the test on Peritoneal cavity cells (setting [1]) was 61 ± 3.6%. In the test with Peritoneal cavity cells (Rattus norvegicus, 0.1 mM), the inhibition at 100 µM amounted to 98.7%.

Regarding `Cc1ccc(C(=O)C(C)CN2CCN(C)CC2)cc1.Cl.Cl` (centres unmarked) [Example 14, 2,4'-dimethyl-3-(4-methylpiperazino)propiophenone dihydrochloride], the “ileum contraction inhibiting rate” value amounted to 58.0 ± 4.36% in the test on SRS-A (10^-4 g/ml), 10.3 ± 7.88% in the test with SRS-A (10^-5 g/ml) and 10.3 ± 7.98% with SRS-A (10^-6 g/ml).

In the case of `CCc1ccc(C(=O)C(C)CN2CCCCC2)cc1CC` (centres unmarked) [Example 34, 3',4'-diethyl-2-methyl-3-piperidinopropiophenone hydrochloride], the inhibition at 50 µM in the test with Peritoneal cavity cells (setting [1]) worked out at 29.1 ± 7.5%.

`O=C(O)c1cc(=O)c2c(OCC(O)COc3cccc4oc(C(=O)O)cc(=O)c34)cccc2o1` [DSCG, disodium chromoglicate, reference compound]: the Histamine release rate in the test on Peritoneal cavity cells (0.01 mM) was 36.8%. In the test with Peritoneal cavity cells (0.01 mM, release not caused by antigen-antibody reaction deducted), the Net release rate is 22.9%. The inhibition at 10 µM with Peritoneal cavity cells (Rattus norvegicus, 0.01 mM) was 30%. The inhibition at 50 µM in the test on Peritoneal cavity cells (setting [1]) stood at 29 ± 6.1%. For the same compound, the inhibition at 100 µM in the test on Peritoneal cavity cells (Rattus norvegicus, 0.1 mM) is 70%.

Turning to `CC(CN1CCCCC1)C(=O)c1cccc2ccccc12` (stereo not drawn) [Example 19, 2-methyl-3-piperidino-α-propionaphthone hydrochloride], in the test with Peritoneal cavity cells (Rattus norvegicus), the inhibition at 200 µM worked out at 100%.

`Cc1ccc(C(=O)C(C)CN2CCCC2)cc1.Cl` (centres unmarked) [Example 13, 2,4'-dimethyl-3-pyrrolidinopropiophenone hydrochloride]: the “ileum contraction inhibiting rate” value in the test with SRS-A (10^-4 g/ml) was found to be 80.7 ± 6.98%; in the test with SRS-A (10^-5 g/ml), 2.7 ± 2.67%; in the test on SRS-A (10^-6 g/ml) it was 1.3 ± 1.33%.

For the compound `CCC(CN1CCCCC1)C(=O)c1ccc2ccccc2c1` (stereo not drawn) [Example 32, 2-ethyl-3-piperidino-β-propionaphthone hydrochloride], in the test on Peritoneal cavity cells (setting [1]), the inhibition at 50 µM was found to be 27.2 ± 8.1%. The inhibition at 100 µM in the test with Peritoneal cavity cells (Rattus norvegicus, 0.1 mM) is 42%.

Consider `COc1ccc(C(=O)C(C)CN2CCCCC2)cc1OC.Cl` (centres unmarked) [Example 7, 3',4'-dimethoxy-2-methyl-3-piperidinopropiophenone hydrochloride], for which the results for the “ileum contraction inhibiting rate” value in the test on SRS-A (10^-4 g/ml), in the test with SRS-A (10^-5 g/ml) and in the test with SRS-A (10^-6 g/ml) were 85.7 ± 0.67%, 8.3 ± 2.85% and 1.0 ± 1.00%, respectively.

Turning to `CC(CN1CCCC1)C(=O)c1ccc2ccccc2c1` (stereo not drawn) [Example 6, 2-methyl-3-pyrrolidino-β-propionaphthone hydrochloride], the inhibition at 100 µM with Peritoneal cavity cells (Rattus norvegicus, 0.1 mM) was found to be 48%. In addition, the “ileum contraction inhibiting rate” value with SRS-A (10^-4 g/ml) is listed as 100.0 ± 0%; with SRS-A (10^-5 g/ml), 63.0 ± 6.66%; with SRS-A (10^-6 g/ml), 0.3 ± 0.33%.

Consider `O=C(CCN1CCCCC1)c1ccc2ccccc2c1` [Example 31, 3-piperidino-β-propionaphthone hydrochloride], for which, in the test on Peritoneal cavity cells (Rattus norvegicus), the inhibition at 50 µM worked out at 53.4 ± 9.1% and the inhibition at 100 µM came to 89.6%.

With `Cc1ccc(C(=O)CCN2CCCCC2)cc1C` [Example 30, 3',4'-dimethyl-3-piperidinopropiophenone hydrochloride], the inhibition at 50 µM in the test on Peritoneal cavity cells (setting [1]) came to 19.4 ± 7.8%. Also, the inhibition at 100 µM with Peritoneal cavity cells (Rattus norvegicus, 0.1 mM) was 50.3%.

For `Cc1ccc(C(=O)C(C)CN2CCN(Cc3ccccc3)CC2)cc1` (centres unmarked) [Example 16, 2,4'-dimethyl-3-(4-benzylpiperazino)propiophenone dihydrochloride], the inhibition at 200 µM with Peritoneal cavity cells (Rattus norvegicus) was found to be 72.4%.

Consider `CCN(CC)CC(C)C(=O)c1ccc(C)cc1.Cl` (centres unmarked) [Example 11, 2,4'-dimethyl-3-diethylaminopropiophenone hydrochloride], for which the entries for the “ileum contraction inhibiting rate” value in the test on SRS-A (10^-4 g/ml), with SRS-A (10^-5 g/ml) and in the test on SRS-A (10^-6 g/ml) were 68.0 ± 13.05%, 0.3 ± 0.33% and 3.0 ± 3.00%, respectively.

Take `Cc1ccc(C(=O)C(C)CN2CCN(CC(C)C)CC2)cc1.Cl.Cl` (centres unmarked) [Example 1, 2,4'-dimethyl-3-(4-isobutylpiperazino)propiophenone dihydrochloride]: the “ileum contraction inhibiting rate” value came to 64.7 ± 7.51% with SRS-A (10^-4 g/ml), 6.7 ± 3.33% with SRS-A (10^-5 g/ml) and 0 ± 0% in the test on SRS-A (10^-6 g/ml).

Take `CC(CN1CCCCC1)C(=O)c1ccc2c(c1)CCCC2` (centres unmarked) [Example 9, 2-methyl-3-piperidino-5',6',7',8'-tetrahydro-2'-propionaphthone hydrochloride]: the inhibition at 100 µM with Peritoneal cavity cells (Rattus norvegicus, 0.1 mM) came to 33.7%.

In the case of `CCCCCCc1ccc(C(=O)C(C)CN2CCCCC2)cc1` (centres unmarked) [Example 22, 4'-hexyl-2-methyl-3-piperidinopropiophenone hydrochloride], the inhibition at 50 µM with Peritoneal cavity cells (setting [1]) is 82 ± 1.7%. The inhibition at 100 µM in the test on Peritoneal cavity cells (Rattus norvegicus, 0.1 mM) worked out at 87.2%.

Turning to `CC(CN(C)C)C(=O)c1ccc2ccccc2c1` (stereo not drawn) [Example 3, 2-methyl-3-dimethylamino-β-propionaphthone hydrochloride], the “ileum contraction inhibiting rate” value came to 91.3 ± 3.84% with SRS-A (10^-4 g/ml), 47.0 ± 9.50% in the test on SRS-A (10^-5 g/ml) and 1.3 ± 0.88% with SRS-A (10^-6 g/ml).

As for `CC(CN1CCCCC1)C(=O)c1ccc(Cl)c(Cl)c1` (centres unmarked) [Example 50, 3',4'-dichloro-2-methyl-3-piperidinopropiophenone hydrochloride], the inhibition at 100 µM with Peritoneal cavity cells (Rattus norvegicus, 0.1 mM) is 73%.

As to `COc1cc(C(=O)C(C)CN2CCCCC2)ccc1O` (centres unmarked) [Example 18, 4'-hydroxy-3'-methoxy-2-methyl-3-piperidinopropiophenone hydrochloride], in the test on Peritoneal cavity cells (Rattus norvegicus), the inhibition at 200 µM amounted to 83.7%.

With `COc1ccc(C(=O)C(C)CN2CCCCC2)cc1Cl` (centres unmarked) [Example 49, 3'-chloro-4'-methoxy-2-methyl-3-piperidinopropiophenone hydrochloride], the inhibition at 100 µM in the test on Peritoneal cavity cells (Rattus norvegicus, 0.1 mM) is 38%.

Regarding `COc1ccc2cc(C(=O)C(C)CN3CCCCC3)ccc2c1` (centres unmarked) [Example 40, 6'-methoxy-2-methyl-3-piperidino-2'-propionaphthone hydrochloride], the inhibition at 100 µM with Peritoneal cavity cells (Rattus norvegicus, 0.1 mM) came to 84%.

With `Cc1ccc2cc(C(=O)C(C)CN3CCCCC3)ccc2c1` (centres unmarked) [Example 51, 2,6'-dimethyl-3-piperidino-2'-propionaphthone hydrochloride], the inhibition at 100 µM in the test with Peritoneal cavity cells (Rattus norvegicus, 0.1 mM) stood at 37%.

On to `CCOc1ccc(C(=O)C(C)CN2CCCCC2)cc1.Cl` (centres unmarked) [Example 26, 4'-ethoxy-2-methyl-3-piperidinopropiophenone hydrochloride], for which the figures for the “ileum contraction inhibiting rate” value in the test with SRS-A (10^-4 g/ml), in the test with SRS-A (10^-5 g/ml) and in the test with SRS-A (10^-6 g/ml) were 86.7 ± 3.84%, 12.3 ± 6.69% and 6.7 ± 5.24%, respectively.

With `COc1ccc2cc(C(=O)CCN3CCCCC3)ccc2c1` [Example 39, 6'-methoxy-3-piperidino-2'-propionaphthone hydrochloride], the inhibition at 100 µM with Peritoneal cavity cells (Rattus norvegicus, 0.1 mM) came to 85%.

For the compound `CC(CN1CCCCC1C)C(=O)c1ccc2ccccc2c1` (stereo not drawn) [Example 28, 2-methyl-3-(2-methylpiperidino)-β-propionaphthone hydrochloride], the inhibition at 50 µM with Peritoneal cavity cells (setting [1]) amounted to 18.5 ± 6.5%. The inhibition at 100 µM in the test with Peritoneal cavity cells (Rattus norvegicus, 0.1 mM) was 40.7%.

Consider `Cc1ccc(C(=O)C(C)CN(C)C)cc1.Cl` (centres unmarked) [Example 24, 2,4'-dimethyl-3-dimethylaminopropiophenone hydrochloride], for which the figures for the “ileum contraction inhibiting rate” value with SRS-A (10^-4 g/ml), with SRS-A (10^-5 g/ml) and with SRS-A (10^-6 g/ml) were 57.3 ± 5.17%, 7.7 ± 3.67% and 4.3 ± 2.40%, respectively.

In the case of `CC(CN1CCCCC1)C(=O)c1ccc2c(c1)CCC2` (centres unmarked) [Example 33, 1-(5-indanyl)-2-methyl-3-piperidinopropanone hydrochloride], the inhibition at 50 µM in the test on Peritoneal cavity cells (setting [1]) was 14.4 ± 2.6%.

Regarding `Cc1ccc(C(=O)C(C)CN2CCOCC2)cc1.Cl` (centres unmarked) [Example 12, 2,4'-dimethyl-3-morpholinopropiophenone hydrochloride], the “ileum contraction inhibiting rate” value turned out to be 69.7 ± 12.13% in the test with SRS-A (10^-4 g/ml), 20.7 ± 5.61% with SRS-A (10^-5 g/ml) and 8.3 ± 6.89% with SRS-A (10^-6 g/ml).

On to `CC1CCCN(CC(C)C(=O)c2ccc3ccccc3c2)C1` (stereo not drawn) [Example 10, 2-methyl-3-(3-methylpiperidino)-β-propionaphthone hydrochloride], for which, in the test on Peritoneal cavity cells (setting [1]), the inhibition at 50 µM was 18 ± 5.4%. The inhibition at 100 µM with Peritoneal cavity cells (Rattus norvegicus, 0.1 mM) was found to be 49.9%.

Regarding `CCN1CCN(CC(C)C(=O)c2ccc(C)cc2)CC1.Cl.Cl` (centres unmarked) [Example 15, 2,4'-dimethyl-3-(4-ethylpiperazino)propiophenone dihydrochloride], the “ileum contraction inhibiting rate” value with SRS-A (10^-4 g/ml) was found to be 69.7 ± 3.71%; with SRS-A (10^-5 g/ml), 20.7 ± 6.12%; in the test on SRS-A (10^-6 g/ml) it was 0.3 ± 0.33%.
